Experimental data from paper PMC11843613, “Further Optimization of the mGlu1 PAM VU6024578/BI02982816: Discovery and Characterization of VU6033685” (ACS Chemical Neuroscience, 2025).
In brackets after ≈: the same amount, converted by molar mass. Several values for one entry are separate records, joined by “and”; a condition that tells them apart may be missing. Identical values can stand only once. Entries after “also recorded” stand apart in the source; their conditions may differ. Like-named read-outs stand apart in the source and are kept apart here.

Columns and labels:
mouse mGlu1 = mouse mGlu1 (Mus musculus, UniProt P97772); experiment: mGlu1 PAM functional assay (mouse); type: cell-based
[1] = Solubility in FASSGF and FASSIF; type: physicochemical
striatal DA release = experiment: Electrically evoked striatal DA release in brain slices (fast scanning cyclic voltammetry); conditions: 10 μM PAM + 10 μM DHPG, mouse slices, 1 μM DHβE present
Method: (§1) into the home cage. The arena is then cleaned with 70% ethanol in between animals. The day of the test the animals are habituated to the dosing room for 2 hours. The animals were administered VU6024578 (1-10 mg/kg p.o.) or vehicle (10% Tween 80) and were placed back into their homecage for 60 min. The animals were then injected with MK-801 (0.075 mg/kg 1 ml/kg s.c.) and placed back in the homecage for 30 min. The animals are then placed into the arena with two identical familiar objects for ten minutes and then placed back into the home cage. The animals are then placed back into the arena with one of the familiar objects replaced with a novel object at 120 min after the familiar object exposure. The activity of the animals are recorded and the time spent exploring each of the objects is scored by a blinded observer. Recognition index is determined by subtracting […] divided by total time spent exploring.
Brain Slice Preparation and Fast Scanning Cyclic Voltammetry: […]
Electrically-evoked dopamine overflow was monitored with carbon fiber electrodes as previously reported (Foster et al. 2014). […]

[2] = system: MK-801 disruption of novel object recognition in rats; experiment: Rat MK-801-induced disruption of novel object recognition (NOR); type: in vivo
Method: (§2) mode (5.0 kV spray voltage). The calibration curves were constructed in blank plasma. All data were analyzed using AB Sciex Analyst software v1.5.1.
(§3) All animal study procedures were approved by the Institutional Animal Care and Use Committee and were conducted in accordance with the National Institutes of Health regulations of animal care covered in Principles of Laboratory Animal Care (National Institutes of Health). […]
GraphPad Prism (version 4.03, GraphPad, La Jolla, CA). […]
The animals are habituated to the novel object arenas for one day prior to testing. This is accomplished by placing the animal in the arena with no objects for 10 min and then placed back […]
into the home cage. The arena is then cleaned with 70% ethanol in between animals. The day of the test the animals are habituated to the dosing room for 2 hours. […]
as §1, with “The” for “into the home cage. The arena is then cleaned with 70% ethanol in between animals. The day of the test the animals are habituated to the dosing room for 2 hours. The animals were administered VU6024578 (1-10 mg/kg p.o.) or vehicle (10% Tween 80) and were placed back into their homecage for 60 min. The”, “exploring. […]” for “exploring.”
NaCl, 26 mM NaHCO3, 11mM D-glucose, 2.5 mM KCl, 2.45mM CaCl2, 1.25mM NaH2PO4 and 1.2mM MgSO4 which was supplemented with 5mM sodium ascorbate. Slices were recovered for at least 1 hour prior to recording. During recording slices were perfused with aCSF in the absence of ascorbate and presence of […] DhβE to block nAChR-mediated dopamine release. […]
Briefly, a triangular voltage wave (-400 to +1000 mV at 300 V/sec) was applied to a fresh-cut carbon fiber electrode every 100 msec. […]

dog mGlu1 = dog mGlu1 (Canis lupus familiaris, UniProt A0A8I3NTE8); experiment: mGlu1 PAM functional assay (dog); type: cell-based
[3] = Rat amphetamine-induced hyperlocomotion (AHL) with satellite PK; type: in vivo; conditions: male, Sprague-Dawley, brain (unbound); for concentration at 1.25 h: sample @ 1.25 hr
Method: as §2, §3
(§4) GraphPad Prism (version 4.03, GraphPad, La Jolla, CA).
(§5) Amphetamine-induced hyperlocomotion (rat)
(§6) Adult male Sprague-Dawley rats placed into the activity chambers (Med Associates). Thirty minutes after placement in the chambers, the rats were administered VU6024578 (1-10 mg/kg p.o..) or vehicle. Sixty minutes later the rats were injected with amphetamine (0.75 mg/kg s.c. 1 ml/kg) or vehicle (saline) and placed back in the activity chambers for 90 minutes. The data for the studies were analyzed by a between-group 2 way analysis of variance for compound dose and time. Each dose group was compared with the vehicle control group. The calculations were performed and graphed using GraphPad Prism (version 4.03, GraphPad, La Jolla, CA). The AUC was analyzed by a 1-way ANOVA with a Dunnett’s post hoc test. […]

[4] = system: amphetamine-induced hyperlocomotion in rats; experiment: as above; type: in vivo
Method: as §2, §3, §4, §5, §6

dog mGlu1, sequence (A0A8I3NTE8 30-1195): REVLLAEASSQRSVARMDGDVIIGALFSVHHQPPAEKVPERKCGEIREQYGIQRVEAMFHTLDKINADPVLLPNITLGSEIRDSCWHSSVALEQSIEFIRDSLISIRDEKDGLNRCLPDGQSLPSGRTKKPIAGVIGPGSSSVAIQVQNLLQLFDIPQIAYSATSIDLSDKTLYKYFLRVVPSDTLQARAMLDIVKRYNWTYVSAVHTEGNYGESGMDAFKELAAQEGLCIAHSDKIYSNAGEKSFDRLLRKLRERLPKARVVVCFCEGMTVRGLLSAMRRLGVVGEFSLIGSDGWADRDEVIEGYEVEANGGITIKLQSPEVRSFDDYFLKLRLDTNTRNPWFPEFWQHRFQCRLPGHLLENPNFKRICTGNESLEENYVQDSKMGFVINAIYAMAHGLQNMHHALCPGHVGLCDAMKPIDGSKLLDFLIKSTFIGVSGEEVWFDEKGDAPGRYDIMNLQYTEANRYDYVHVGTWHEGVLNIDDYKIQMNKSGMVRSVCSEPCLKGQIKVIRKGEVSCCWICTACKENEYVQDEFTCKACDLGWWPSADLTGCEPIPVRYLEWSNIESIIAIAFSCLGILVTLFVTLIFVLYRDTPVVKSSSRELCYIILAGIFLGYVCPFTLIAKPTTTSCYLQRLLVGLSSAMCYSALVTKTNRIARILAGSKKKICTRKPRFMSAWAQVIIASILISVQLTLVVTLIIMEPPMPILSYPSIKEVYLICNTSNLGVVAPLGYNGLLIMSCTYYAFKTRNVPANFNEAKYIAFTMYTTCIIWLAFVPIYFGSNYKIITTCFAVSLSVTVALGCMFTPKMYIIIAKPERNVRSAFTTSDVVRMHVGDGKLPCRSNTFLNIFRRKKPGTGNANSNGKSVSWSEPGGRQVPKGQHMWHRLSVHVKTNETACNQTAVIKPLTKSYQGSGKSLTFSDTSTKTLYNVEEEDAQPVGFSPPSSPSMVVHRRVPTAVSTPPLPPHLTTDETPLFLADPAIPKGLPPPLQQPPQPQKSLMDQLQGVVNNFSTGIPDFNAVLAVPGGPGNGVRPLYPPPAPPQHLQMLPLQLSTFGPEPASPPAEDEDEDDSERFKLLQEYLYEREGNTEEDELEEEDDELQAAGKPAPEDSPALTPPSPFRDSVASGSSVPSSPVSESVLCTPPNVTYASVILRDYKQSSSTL
mouse mGlu1, sequence (P97772 19-1199 limits assumed): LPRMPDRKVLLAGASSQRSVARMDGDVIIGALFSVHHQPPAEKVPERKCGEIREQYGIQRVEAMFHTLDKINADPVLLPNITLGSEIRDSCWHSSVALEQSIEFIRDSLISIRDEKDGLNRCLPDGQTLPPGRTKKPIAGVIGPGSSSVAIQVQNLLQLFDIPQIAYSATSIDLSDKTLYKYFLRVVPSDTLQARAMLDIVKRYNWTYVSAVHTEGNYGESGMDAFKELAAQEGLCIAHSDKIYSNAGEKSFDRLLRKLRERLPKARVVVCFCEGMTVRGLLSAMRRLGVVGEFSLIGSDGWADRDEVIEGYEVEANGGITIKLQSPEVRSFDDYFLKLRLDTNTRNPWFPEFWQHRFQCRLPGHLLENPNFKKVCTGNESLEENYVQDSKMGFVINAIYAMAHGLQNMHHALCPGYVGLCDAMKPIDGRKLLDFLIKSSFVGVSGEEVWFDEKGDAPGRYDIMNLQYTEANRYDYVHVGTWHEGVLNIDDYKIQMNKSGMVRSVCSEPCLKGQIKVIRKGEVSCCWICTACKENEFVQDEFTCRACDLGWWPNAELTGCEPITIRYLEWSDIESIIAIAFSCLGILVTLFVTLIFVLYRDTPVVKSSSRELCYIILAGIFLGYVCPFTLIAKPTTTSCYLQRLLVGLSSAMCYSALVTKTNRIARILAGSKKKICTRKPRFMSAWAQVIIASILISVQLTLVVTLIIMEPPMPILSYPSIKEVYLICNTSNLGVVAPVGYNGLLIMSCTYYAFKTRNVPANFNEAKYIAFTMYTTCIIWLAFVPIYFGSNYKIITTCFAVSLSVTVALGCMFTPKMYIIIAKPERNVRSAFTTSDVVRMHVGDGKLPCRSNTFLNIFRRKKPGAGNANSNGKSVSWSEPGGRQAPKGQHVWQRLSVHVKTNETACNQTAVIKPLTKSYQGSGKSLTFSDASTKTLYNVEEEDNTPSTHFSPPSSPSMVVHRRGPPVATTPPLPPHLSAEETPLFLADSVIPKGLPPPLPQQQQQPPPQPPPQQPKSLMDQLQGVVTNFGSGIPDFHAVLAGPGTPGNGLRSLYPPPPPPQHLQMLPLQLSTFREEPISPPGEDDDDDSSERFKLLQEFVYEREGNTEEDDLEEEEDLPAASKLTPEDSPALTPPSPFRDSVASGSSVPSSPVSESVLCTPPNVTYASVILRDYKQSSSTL

Cc1nc(C2CC2)ccc1CNC(=O)c1cc(-n2cccn2)ccc1Cl [compound 8]
EC50 (mouse mGlu1): 0.052 µM
mouse mGlu1 Glu Max (mouse mGlu1): 102%
solubility ([1]; FASSGF, fassgf or other biorelevant, read-out: Solubility FASSGF): 0.572 mg/mL (≈ 1560 µM)
solubility ([1]; FASSIF, read-out: Solubility FASSIF): 0.0236 mg/mL (≈ 64.3 µM)
effect on striatal DA release when coapplied with subthreshold DHPG (striatal DA release): robust inhibition of DA release
free brain level as fold of rat in vitro EC50 at 30 mg/kg in NOR ([2]; rat PO 30 mg/kg): ~5.2 fold
free brain level at 30 mg/kg in NOR ([2]; rat PO 30 mg/kg, 0.5% Natrasol/0.015% Tween 80 in water): 0.579 µM
reversal of MK-801 disruption of novel object recognition ([2]; rat, PO, MK-801 0.075 mg/kg SC, one-way ANOVA p = 0.13): dose-dependently reverse the deficits induced by MK-801; also recorded: dose-dependently reversed
EC50 (dog mGlu1): 0.093 µM
Emax (dog mGlu1; read-out: dog mGlu1 Glu Max): 79%
concentration at 1.25 h ([3]; rat PO 1 mg/kg, read-out: Brain Unbound at 1 mg/kg): 0.0161 µM
concentration at 1.25 h ([3]; rat PO 3 mg/kg, read-out: Brain Unbound at 3 mg/kg): 0.0354 µM
concentration at 2.5 h ([3]; rat PO 10 mg/kg, satellite PK, 2.5 h end of study (picture: sample @ 1.25 hr), read-out: free (unbound) brain concentration at 10 mg/kg): 0.0798 µM
AHL efficacy compared with positive control 3 ([4]; rat): comparable efficacy to the standard 3
minimum effective dose (MED) in AHL ([4]; rat PO): 10 mg/kg
unbound brain concentration as fold of in vitro rat mGlu1 EC50 at efficacy in AHL ([4]; rat, 10 mg/kg MED, 10 mg/kg): ~0.74 fold and ~0.7 fold
reversal of amphetamine-induced hyperlocomotion ([4]; rat, oral administration, amphetamine 0.75 mg/kg SC): dose-dependently reversed
